# Literature values as cited in patent US8541223B2, “Lactic acid bacteria having action of lowering blood uric acid level” (Meiji Co., Ltd., priority 2007, dated 2013).
# Tested on: dietary hyperuricemia model animals
# Settings: oral administration of allopurinol; from Food Function Research News vol. 14
compound,measurement,value
Oc1ncnc2[nH]ncc12 [allopurinol],blood uric acid level in the model animals,significantly suppressed
